Assay results reported in ChEMBL document CHEMBL1129158, “Marine sponge bis(indole) alkaloids that displace ligand binding to 1 adrenergic receptors” (Bioorg Med Chem Lett, 1996).

What was measured:
[1] = biological target: T1, Alpha-1A adrenergic receptor (Homo sapiens, UniProt P35348); experiment: Compound was tested for its binding affinity towards CHO cells expressing human Alpha-1a adrenergic receptor by displacing [125I]HEAT (2-beta-(4-hydroxyphenyl)-ethylaminomethyltetralone); format: cell-based
T1 sequence (P35348 whole entry): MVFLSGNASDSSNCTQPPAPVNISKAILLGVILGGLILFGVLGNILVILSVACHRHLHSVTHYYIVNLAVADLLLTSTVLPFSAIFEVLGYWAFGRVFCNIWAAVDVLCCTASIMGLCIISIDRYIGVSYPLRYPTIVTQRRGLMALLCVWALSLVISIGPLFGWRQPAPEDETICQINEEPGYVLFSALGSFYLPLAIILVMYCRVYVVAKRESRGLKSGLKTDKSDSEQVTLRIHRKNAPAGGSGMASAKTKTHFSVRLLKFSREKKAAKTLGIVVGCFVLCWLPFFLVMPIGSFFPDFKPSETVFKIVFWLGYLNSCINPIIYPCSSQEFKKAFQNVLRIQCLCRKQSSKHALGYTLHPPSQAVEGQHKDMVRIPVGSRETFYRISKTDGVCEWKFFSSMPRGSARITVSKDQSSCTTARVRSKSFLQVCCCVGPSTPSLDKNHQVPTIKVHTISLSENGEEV

[2] = biological target: Adrenergic receptors; alpha-1 A & B (Homo sapiens) (UniProt P35348+P35368); experiment: Selectivity is determined from the ratio of binding affinities of alpha 1a adrenoceptor to alpha 1b adrenoceptor; format: protein assay
[3] = biological target: T2, Alpha-1B adrenergic receptor (Homo sapiens, UniProt P35368); experiment: Binding affinity against human Alpha-1b adrenergic receptor
T2 sequence (P35368 whole entry): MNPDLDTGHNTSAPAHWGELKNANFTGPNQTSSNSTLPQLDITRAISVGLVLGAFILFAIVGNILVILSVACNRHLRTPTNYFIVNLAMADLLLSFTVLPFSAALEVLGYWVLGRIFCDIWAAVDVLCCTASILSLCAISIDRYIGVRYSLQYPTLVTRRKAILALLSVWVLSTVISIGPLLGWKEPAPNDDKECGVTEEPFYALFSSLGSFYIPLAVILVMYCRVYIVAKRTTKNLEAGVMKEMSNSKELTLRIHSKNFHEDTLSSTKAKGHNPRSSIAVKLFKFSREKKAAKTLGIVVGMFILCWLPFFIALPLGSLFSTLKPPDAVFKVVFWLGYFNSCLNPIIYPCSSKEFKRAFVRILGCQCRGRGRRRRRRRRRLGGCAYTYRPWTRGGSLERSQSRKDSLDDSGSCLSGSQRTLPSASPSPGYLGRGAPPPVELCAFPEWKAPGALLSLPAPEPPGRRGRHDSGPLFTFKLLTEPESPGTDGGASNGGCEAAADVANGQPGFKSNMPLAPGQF

[4] = biological target: T3, Alpha-1A adrenergic receptor (Rattus norvegicus, UniProt P43140); experiment: Binding affinity was determined against Alpha-1a adrenergic receptor
T3 sequence (P43140 whole entry): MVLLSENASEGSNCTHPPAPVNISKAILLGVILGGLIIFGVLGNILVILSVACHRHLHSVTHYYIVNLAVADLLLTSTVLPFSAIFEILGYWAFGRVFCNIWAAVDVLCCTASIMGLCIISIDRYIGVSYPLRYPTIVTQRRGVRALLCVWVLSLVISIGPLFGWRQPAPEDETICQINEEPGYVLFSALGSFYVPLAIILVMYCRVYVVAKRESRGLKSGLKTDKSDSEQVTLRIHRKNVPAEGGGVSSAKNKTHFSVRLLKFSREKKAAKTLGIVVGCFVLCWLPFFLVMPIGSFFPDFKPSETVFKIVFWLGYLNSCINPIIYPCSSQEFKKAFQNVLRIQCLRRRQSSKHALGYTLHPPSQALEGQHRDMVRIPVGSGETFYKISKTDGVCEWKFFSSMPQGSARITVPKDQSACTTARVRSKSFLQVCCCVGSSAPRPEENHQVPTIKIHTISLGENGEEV

[5] = biological target: Alpha-1B adrenergic receptor (Mesocricetus auratus, UniProt P18841); experiment: Compound was tested for its binding affinity towards Rat-1 cells stably expressing hamster alpha-1b adrenergic receptor by displacing [125I]HEAT (2-beta-(4-hydroxyphenyl)-ethylaminomethyltetralone); format: cell-based
Alpha-1B adrenergic receptor (Mesocricetus auratus, UniProt P18841), sequence (P18841 whole entry, looked up): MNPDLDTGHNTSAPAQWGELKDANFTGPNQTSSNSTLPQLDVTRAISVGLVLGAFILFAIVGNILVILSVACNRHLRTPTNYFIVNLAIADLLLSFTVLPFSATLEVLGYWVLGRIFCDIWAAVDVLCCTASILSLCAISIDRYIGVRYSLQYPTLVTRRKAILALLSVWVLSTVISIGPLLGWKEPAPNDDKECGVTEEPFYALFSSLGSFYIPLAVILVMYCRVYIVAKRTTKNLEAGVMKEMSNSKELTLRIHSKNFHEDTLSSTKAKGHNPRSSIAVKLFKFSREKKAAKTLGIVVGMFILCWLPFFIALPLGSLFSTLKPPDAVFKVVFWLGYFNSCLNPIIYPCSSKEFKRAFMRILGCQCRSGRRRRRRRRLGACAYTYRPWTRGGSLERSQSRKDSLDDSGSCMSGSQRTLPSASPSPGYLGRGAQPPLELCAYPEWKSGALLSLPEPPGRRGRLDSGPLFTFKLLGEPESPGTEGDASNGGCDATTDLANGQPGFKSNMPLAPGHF

SMILES: Brc1ccc2c(-c3c[nH]c(-c4c[nH]c5ccccc45)n3)c[nH]c2c1 [NORTOPSENTIN C]
- Ki [1]: 550 nM
- Selectivity [2]: 3.2

SMILES: Brc1ccc2c(-c3nc(-c4c[nH]c5ccccc45)c[nH]3)c[nH]c2c1 [NORTOPSENTIN B]
- Ki [1]: 770 nM
- Selectivity [2]: 5.9

SMILES: O=C(c1nc(-c2c[nH]c3cc(Br)ccc23)c[nH]1)c1c[nH]c2cc(O)ccc12 [BROMOTOPSENTIN]
- Ki [1]: 12600 nM
- Selectivity [2]: 17

SMILES: CN1C[C@H](c2c[nH]c3c(Br)c(Br)cc(O)c23)NC[C@H]1c1c[nH]c2cc(Br)ccc12
- Ki [1]: 140 nM
- Ki [3]: 78 nM
- Selectivity [2]: 1.8
- Ki [4]: 138 nM

SMILES: O=C(c1nc(-c2c[nH]c3ccccc23)c[nH]1)c1c[nH]c2cc(O)ccc12 [TOPSENTIN]
- Ki [5]: 4740 nM
- Selectivity [2]: 4.1

SMILES: Brc1ccc2c(-c3c[nH]c(-c4c[nH]c5cc(Br)ccc45)n3)c[nH]c2c1 [NORTOPSENTIN A]
- Ki [1]: 2140 nM
- Selectivity [2]: 4.1
